In patent US20120101095A1, “ALKOXY-THIENOPYRIMIDINES AS TGF-BETA RECEPTOR KINASE MODULATORS” (priority 2009, published 2012):

These molecules were tested against T1, GST-ALK5 (Homo sapiens, UniProt P36897) (assay: In-vitro (enzyme) kinase assay, 384-well flashplate, GST-SMAD2 substrate). Details: 31.2 nM GST-ALK5, 439 nM GST-SMAD2, 3 mM ATP, 30° C., 45 min.
T1 sequence (P36897 34-503): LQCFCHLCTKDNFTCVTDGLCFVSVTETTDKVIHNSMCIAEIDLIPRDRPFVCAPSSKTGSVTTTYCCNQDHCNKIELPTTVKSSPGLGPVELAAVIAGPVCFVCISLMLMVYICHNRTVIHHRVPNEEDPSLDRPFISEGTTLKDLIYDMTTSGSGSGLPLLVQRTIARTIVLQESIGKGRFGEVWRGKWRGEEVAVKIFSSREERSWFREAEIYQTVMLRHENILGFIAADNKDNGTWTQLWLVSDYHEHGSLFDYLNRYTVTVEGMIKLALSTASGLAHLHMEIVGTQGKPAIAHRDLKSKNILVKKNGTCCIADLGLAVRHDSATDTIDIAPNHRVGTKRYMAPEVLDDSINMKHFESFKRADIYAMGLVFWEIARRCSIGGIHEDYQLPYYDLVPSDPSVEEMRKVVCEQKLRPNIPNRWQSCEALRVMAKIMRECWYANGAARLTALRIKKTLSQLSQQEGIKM
Assay type: biochemical
Method: In-Vitro (Enzyme) Assay for Determination of the Efficacy of Inhibitors of the Inhibition of TGF-Beta-Mediated Effects
The kinase assay was carried out as 384-well flashplate assay. 31.2 nM of GST-ALK5, 439 nM of GST-SMAD2 and 3 mM of ATP (with 0.3 μCi of ^33P-ATP/well) were incubated in a total volume of 35 μl (20 mM of HEPES, 10 mM of MgCl2, 5 mM of MnCl2, 1 mM of DTT, 0.1% of BSA, pH 7.4) without or with test substance (5-10 concentrations) at 30° C. for 45 min. The reaction was stopped using 25 μl of 200 mM EDTA solution, filtered with suction at room temperature after 30 min, and the wells were washed with 3 times 100 μl of 0.9% NaCl solution. Radioactivity was measured in the TopCount. The IC50 values were calculated using RS1 (Table 1). Above and below, all temperatures were indicated in ° C.

| SMILES | IC50 |
| --- | --- |
| NC(=O)c1sc2nc(OCC3CC3)nc(-c3cccc(C(F)(F)F)c3)c2c1N [No 14, 5-Amino-2-cyclopropylmethoxy-4-(3-trifluoromethyl-phenyl)-thieno[2,3-d]pyrimidine-6-carboxylic acid amide] | > 1 µM |
| NC(=O)c1sc2nc(OCCCCC3NC(=O)NC3=O)nc(-c3cccc(Cl)c3)c2c1N (stereo not drawn) [No 78, 5-Amino-4-(3-chloro-phenyl)-2-[4-(2,5-dioxo-imidazolidin-4-yl)-butoxy]-thieno[2,3-d]pyrimidine-6-carboxylic acid amide] | < 0.1 µM |
| NC(=O)c1sc2nc(OC[C@@H](O)CO)nc(-c3cccc(Cl)c3)c2c1N [No 18, 5-Amino-4-(3-chloro-phenyl)-2-((S)-2,3-dihydroxy-propoxy)-thieno[2,3-d]pyrimidine-6-carboxylic acid amide] | 0.1 to 0.5 µM |
| Cc1ccc(-c2nc(OCCCn3cccn3)nc3sc(C(N)=O)c(N)c23)o1 [No 39, 5-Amino-4-(5-methyl-furan-2-yl)-2-(3-pyrazol-1-yl-propoxy)-thieno[2,3-d]pyrimidine-6-carboxylic acid amide] | 0.1 to 0.5 µM |
| CC(C)(C)OCCOc1nc(-c2cccc(C(F)(F)F)c2)c2c(N)c(C(N)=O)sc2n1 [No 12, 5-Amino-2-(2-tert-butoxy-ethoxy)-4-(3-trifluoromethyl-phenyl)-thieno[2,3-d]pyrimidine-6-carboxylic acid amide] | 0.5 to 1 µM |
| NC(=O)c1sc2nc(OCCO)nc(-c3cccc(Cl)c3)c2c1N [No 13, 5-Amino-4-(3-chloro-phenyl)-2-(2-hydroxy-ethoxy)-thieno[2,3-d]pyrimidine-6-carboxylic acid amide] | 0.1 to 0.5 µM |
| NC(=O)c1sc2nc(OCc3ccn(CCO)n3)nc(-c3cccc(Cl)c3)c2c1N [No 74, 5-Amino-4-(3-chloro-phenyl)-2-[1-(2-hydroxy-ethyl)-1H-pyrazol-3-ylmethoxy]-thieno[2,3-d]pyrimidine-6-carboxylic acid amide] | < 0.1 µM |

Next, values leading:

| IC50 | SMILES |
| --- | --- |
| < 0.1 µM | NC(=O)c1sc2nc(OCCCn3cccn3)nc(-c3cccc(Cl)c3)c2c1N [No 41, 5-Amino-4-(3-chloro-phenyl)-2-(3-pyrazol-1-yl-propoxy)-thieno[2,3-d]pyrimidine-6-carboxylic acid amide] |
| < 0.1 µM | Cc1cccc(-c2nc(OCc3cnn(C)c3)nc3sc(C(N)=O)c(N)c23)n1 [No 33, 5-Amino-2-(1-methyl-1H-pyrazol-4-ylmethoxy)-4-(6-methyl-pyridin-2-yl)-thieno[2,3-d]pyrimidine-6-carboxylic acid amide] |
| < 0.1 µM | NC(=O)c1sc2nc(OC/C=C\CO)nc(-c3cccc(Cl)c3)c2c1N [No 58, 5-Amino-4-(3-chloro-phenyl)-2-((Z)-4-hydroxy-but-2-enyloxy)-thieno[2,3-d]pyrimidine-6-carboxylic acid amide] |
| < 0.1 µM | Cn1cc(COc2nc(-c3cccc(Cl)c3)c3c(N)c(C(N)=O)sc3n2)cn1 [No 44, 5-Amino-4-(3-chloro-phenyl)-2-(1-methyl-1H-pyrazol-4-ylmethoxy)-thieno[2,3-d]pyrimidine-6-carboxylic acid amide] |
| < 0.1 µM | NC(=O)c1sc2nc(OC[C@H]3C[C@@H]3CO)nc(-c3cccc(Cl)c3)c2c1N [No 60, 5-Amino-4-(3-chloro-phenyl)-2-((1S,2S)-2-hydroxymethyl-cyclopropylmethoxy)-thieno[2,3-d]pyrimidine-6-carboxylic acid amide] |
